{"source": "patent US20210308131A1", "about": "“Treatment Regimen” (GlaxoSmithKline Intellectual Property Development Limited, priority 2020, published 2021)", "key": {"[1]": {"tested_on": "NG isolate from the Phase 2 clinical trial with ParC D86N mutation", "type": "cell-based, Neisseria gonorrhoeae", "description": "10 mL of an initial bacterial density of 10^6 colony forming units (CFU)/mL was inoculated into the hollow-fiber cartridge (Fibercell Systems, Frederick, Md.), utilizing modified FB medium.\nSamples were collected for observation of simulated pharmacokinetic profiles and enumeration of bacterial burden over the study duration. All bacterial samples were plated on drug-free and agar supplemented with 2×the agar MIC value of each respective challenge compound."}, "[2]": {"test": "Single-dose PK (saliva, urine, plasma) in subjects with renal impairment and matched controls", "type": "in vivo, human", "description": "Gepotidacin exposures were assessed in plasma and other matrices, such as urine, saliva, epithelial lining fluid (ELF), Alveolar Macrophages (AM), cervix, rectum and pharynx, as follows: • 1. Plasma, Epithelial Lining Fluid (ELF) and Alveolar Macrophage (AM) samples: A study to evaluate plasma and pulmonary pharmacokinetics (PK) following intravenous administration of gepotidacin in healthy adult subjects was conducted (see M Hossain, EF Dumont. Population Pharmacokinetic Modeling of Plasma and Epithelial Lining Fluid Data for a Novel Antimicrobial Compound. 54th Annual Interscience Conference on Antimicrobial Agents and Chemotherapy Meeting, 5-9 September 2014, Washington, D.C., USA, incorporated herein by reference in its entirety) • 2. Saliva, Urine and plasma samples: • a. A single-dose study to assess the PK of oral gepotidacin in male and female adult participants with varying degrees of hepatic impairment and in matched control participants with normal hepatic function (J. Hands et al. Pharmacokinetics of Gepotidacin in Subjects with Hepatic Impairment. ID Week, 2-6 Oct. 2019, Washington D.C., USA, incorporated herein by reference in its entirety) • b. A single-dose study to assess the PK of gepotidacin in adult subjects with varying degrees of renal impairment and in matched control subjects with normal renal function • 3. Urine, plasma, cervix, rectum and pharynx swabs: • In a Phase 2a, single-center, single-arm, open-label study in the Unites States from July 2018 to January 2019 (see Overcash et al., Open Forum Infectious Diseases, Volume 6, Issue Supplement 2, October 2019, Page S539, https://doi.org/10.1093/ofid/ofz360.1343, incorporated herein by reference in its entirety), a total of 22 female participants with uncomplicated Urinary Tract Infection (uUTI) were enrolled and evaluated for pharmacokinetics (PK), safety, and clinical efficacy. Participants were confined to the clinic from baseline (Days −1 to 1 predose) through on-therapy (Days 1 to 5) and returned as outpatients for test-of-cure (TOC; Days 10 to 13) and follow-up (Day 28±3). Participants received oral gepotidacin 1,500 mg twice daily (BID) for 5 days. […] The majority of participants were white, age ranged from 19 to 60 years, and body mass index ranged from 20.9 to 37.9 kg/m^2. The number of past uUTI episodes ranged from 0 to 10 over the past 12 months across participants; the majority of participants reported episodes. […] Gepotidacin exposures in urine, cervix, rectum and pharynx were assessed.\n(§1) Saliva, Urine and Plasma concentrations were determined after administration of gepotidacin 750 mg IV (healthy and renally impaired subjects) and 1500 mg orally (healthy and hepatically impaired subjects, as well as uUTI patients). […]"}, "[3]": {"test": "Phase 2a study in female participants with uUTI: urine, plasma, cervix, rectum and pharynx swab PK and safety", "type": "in vivo, human", "description": "(§2) Gepotidacin exposures were assessed in plasma and other matrices, such as urine, saliva, epithelial lining fluid (ELF), Alveolar Macrophages (AM), cervix, rectum and pharynx, as follows: • 1. […] Urine, plasma, cervix, rectum and pharynx swabs: • In a Phase 2a, single-center, single-arm, open-label study in the Unites States from July 2018 to January 2019 (see Overcash et al., Open Forum Infectious Diseases, Volume 6, Issue Supplement 2, October 2019, Page S539, https://doi.org/10.1093/ofid/ofz360.1343, incorporated herein by reference in its entirety), a total of 22 female participants with uncomplicated Urinary Tract Infection (uUTI) were enrolled and evaluated for pharmacokinetics (PK), safety, and clinical efficacy. […] Gepotidacin exposures in urine, cervix, rectum and pharynx were assessed.\nas §1"}, "[4]": {"tested_on": "Neisseria gonorrhoeae", "settings": "cited from earlier work"}, "[5]": {"test": "Single-dose PK (saliva, urine, plasma) in participants with hepatic impairment and matched controls", "type": "in vivo, human", "settings": "1500 mg orally", "description": "as §2, §1"}, "[6]": {"test": "Plasma and pulmonary (ELF, AM) pharmacokinetics after intravenous gepotidacin in healthy adult subjects", "type": "in vivo, human", "settings": "single IV infusion 1000 mg over 2 hours", "description": "as §2\nPlasma, Epithelial Lining Fluid (ELF) and Alveolar Macrophage (AM) PK were assessed following a single IV infusion of 1000 mg gepotidacin over 2 hours. […]"}, "[7]": {"test": "Safety and pharmacokinetics in healthy adults and adolescents (Example 3)", "type": "in vivo, human", "description": "Healthy adults and adolescents within the age ranges of 19-64 and 12-17 years old, respectively, participated in the study.\nIn Part 1 of the study, gepotidacin was administered with food to healthy adults 18 years) in period 1 (1500 mg oral single dose), followed by period 2 (3000 mg×2 oral doses Q12 h) and period 3 (3000 mg×2 oral doses Q6 h).\nIn Part 2 of the study, gepotidacin was administered with food to adolescents (12 to <18 years) at the same dose regimens as period 1 (1500 mg oral single dose) and period 3 (3000 mg×2 oral doses Q6 h)."}, "[8]": {"settings": "Period 1, 1500 mg oral single dose"}}}
{"smiles": "CO/N=C(\\C(=O)N[C@@H]1C(=O)N2C(C(=O)O)=C(CSc3nc(=O)c(=O)[nH]n3C)CS[C@H]12)c1csc(N)n1", "note": "[ceftriaxone, reference compound]", "values": [{"measurement": "performance of control in hollow fibre infection model", "setting": "[1]; simulated ciprofloxacin 0.5 g oral, ceftriaxone 0.25 g intramuscular, isolate ciprofloxacin-resistant, ceftriaxone-susceptible", "result": "performed as expected"}]}
{"smiles": "O=c1ccc2ncc(=O)n3c2n1C[C@H]3CN1CCC(NCc2cc3c(cn2)OCCC3)CC1", "note": "[gepotidacin, (2R)-2-({4-[(3,4-Dihydro-2H-pyrano[2,3-c]pyridin-6-ylmethyl)amino]-1-piperidinyl}methyl)-1,2-dihydro-3H,8H-2a,5,8a-triazaacenaphthylene-3,8-dione]", "values": [{"measurement": "gepotidacin dose removed in the urine (fe %)", "setting": "[2]; ESRD subjects not on hemodialysis", "result": 7.9, "unit": "%"}, {"measurement": "gepotidacin dose excreted in the urine", "setting": "[2]; ESRD subjects on hemodialysis", "result": "Less than 2%"}, {"measurement": "gepotidacin dose removed in the urine (fe %)", "setting": "[2]; moderate renal impairment subjects", "result": 22.1, "unit": "%"}, {"measurement": "gepotidacin dose removed in the urine (fe %)", "setting": "[2]; normal renal function subjects", "result": 37.4, "unit": "%"}, {"measurement": "rank order of gepotidacin free-drug concentrations", "setting": "[3]; 1500 mg BID, uUTI patients, swabs and plasma", "result": "highest in rectal tissue; followed by cervical tissue, which was similar to plasma concentrations; followed by pharyngeal tissue"}, {"measurement": "discontinuations due to adverse events", "setting": "[3]; oral 1,500 mg BID for 5 days, 22 female uUTI participants", "result": "no discontinuations due to adverse events"}, {"measurement": "microbiological successes (bacterial eradication)", "setting": "[4]; number of the 8 participants with D86N-positive baseline urogenital NG isolates", "result": 5}, {"measurement": "efficacy (bacterial eradication) against urogenital infection caused by NG", "setting": "[4]; single oral doses of 1.5 g and 3 g", "result": "≥ 95", "unit": "%"}, {"measurement": "safety signals", "setting": "[4]; single oral doses of 1500 and 3000 mg", "result": "no unexpected safety signals"}, {"measurement": "participants who failed therapy at the urogenital body site", "setting": "[4]; total number, single oral 1500 or 3000 mg", "result": 3}, {"measurement": "urinary exposure (AUC[0-48]) relative to matched healthy controls", "setting": "[5]; moderate hepatic impairment", "result": "approximately 3.2 fold"}, {"measurement": "urinary exposure (AUC[0-48]) relative to matched healthy controls", "setting": "[5]; severe hepatic impairment", "result": "~3.9", "unit": "fold"}, {"measurement": "doses preventing amplification of resistance within the system", "setting": "[1]; gepotidacin-resistant subpopulation on Day 7", "result": 4.5, "unit": "g"}, {"measurement": "total daily doses that prevented resistance amplification to gepotidacin", "setting": "[1]; including 2 x 3 g doses 8 or 12 hours apart", "result": "≥ 4500", "unit": "mg"}, {"measurement": "doses sterilizing the system over the seven-day period", "setting": "[1]; simulated single oral dose free-drug plasma profiles, 0.75 to 12 g", "result": "≥ 4.5", "unit": "g"}, {"measurement": "AM AUC(0-12) relative to ELF", "setting": "[6]", "result": "~97", "unit": "fold"}, {"measurement": "AM Cmax relative to ELF", "setting": "[6]", "result": "approximately 120 fold"}, {"measurement": "tolerability", "setting": "[7]; 1500 mg oral single dose, adults and adolescents, few mild GI AEs", "result": "generally well tolerated"}, {"measurement": "maximum concentration (Cmax), adolescents compared to adults", "setting": "[7]; [8]", "result": "similar"}, {"measurement": "median area under the curve (AUC), adolescents compared to adults", "setting": "[7]; [8]", "result": "slightly higher"}, {"measurement": "AUC following the second dose, adolescents versus adults", "setting": "[7]; Period 3, 3000 mg x 2 Q6 h", "result": "higher"}, {"measurement": "Cmax following the second dose, adolescents versus adults", "setting": "[7]; Period 3, 3000 mg x 2 Q6 h", "result": "similar"}, {"measurement": "subjects above the Cmax value of potential clinical concern", "setting": "[7]; adolescents, 3000 mg x 2 Q6 h", "result": 58, "unit": "%"}, {"measurement": "AUC0-t following the first dose, Q12 h versus Q6 h", "setting": "[7]; adults, 3000 mg", "result": "similar"}, {"measurement": "accumulation ratios, Q6 h compared to Q12 h", "setting": "[7]; adults, 3000 mg x 2", "result": "Higher"}, {"measurement": "subjects above the Cmax value of potential clinical concern", "setting": "[7]; adults, 3000 mg x 2 Q6 h", "result": 46, "unit": "%"}, {"measurement": "subjects above the Cmax value of potential clinical concern", "setting": "[7]; adults, 3000 mg x 2 Q12 h", "result": 15, "unit": "%"}, {"measurement": "safety issues related to QT or AchE-I", "setting": "[7]; in vivo", "result": "No observed safety issues related to QT or AchE-I"}]}
